According to patent US9676714B2, “Sulfonylindole derivatives and method for preparing the same” (Daewoong Pharmaceutical Co., Ltd., priority 2013, dated 2017):
Where a name gives a salt, the structure may show the parent alone.

Experiments:
[1] = system: basal gastric acid secretion; assay: Inhibitory effect on the basal gastric acid secretion in pylorus-ligated rats (Shay's rat model); assay type: in vivo, Sprague Dawley (SD) rats; conditions: 5 h, male SD rats, 3 mg/kg/2 ml into the duodenum, five hours after the ligation, total gastric acid secretion vs control group
Description: 3) Inhibitory Effect on the Basal Gastric Acid Secretion in Pylorus-Ligated Rats
Assays for determining inhibitory effect of the compounds of the present invention on the basal gastric acid secretion was performed according to Shay's rat model (Shay, H., et al., 1945, gastroenterology, 5, p. 43-61). Male Sprague Dawley (SD) rats with a body weight in the range of 180˜220 g were divided into test (n=5) and control groups (n=5), and fasted for 18 hours with free access to water. Under isoflurane anesthesia, the abdomens of the rats were incised and then the pylorus was ligated. After the ligation, the control groups were administered with only 10% ethanol, 20% polyethylene glycol (PEG) 400, and 10% aqueous Cremophor solution through the duodenum, and the other groups were administered with test compounds suspended in 10% ethanol, 20% PEG 400, and 10% aqueous Cremophor solution at a concentration of 3 mg/kg/2 ml into the duodenum. Five hours after the ligation, the experimental animals were euthanized and their stomach contents were collected. The thus obtained contents were centrifuged at 4,000×g for 10 minutes, and the supernatant was recovered to obtain gastric juice therefrom. The amount of the gastric juice and its pH were measured. The acidity of the gastric juice was determined by 0.1 N-NaOH volume (ueq/mL) for automatic titration of gastric acid to pH 7.0. The total acid output was obtained by multiplying the gastric acidity by the amount of gastric juice. Inhibition Activity (%) of Test Compounds=(total gastric acid secretion in control group−total gastric acid secretion in groups treated with test compounds)/total gastric acid secretion in control group×100

[2] = target: T1, proton pump (H+/K+-ATPase) (Sus scrofa, UniProt P19156); assay: Measurement of inhibitory effects on proton pump (H+/K+-ATPase) activities; assay type: biochemical; conditions: hog gastric vesicles, K+-specific H+/K+-ATPase activity, Tris-HCl buffer pH 7.4, 37° C. for 40 minutes, malachite green Pi readout
T1 construct: Gastric vesicles were prepared from hog stomach via centrifugal separation; from tissue; host or cells: hog stomach (gastric vesicles, method of Rabon et al. 1988)
T1 sequence (P19156 whole entry): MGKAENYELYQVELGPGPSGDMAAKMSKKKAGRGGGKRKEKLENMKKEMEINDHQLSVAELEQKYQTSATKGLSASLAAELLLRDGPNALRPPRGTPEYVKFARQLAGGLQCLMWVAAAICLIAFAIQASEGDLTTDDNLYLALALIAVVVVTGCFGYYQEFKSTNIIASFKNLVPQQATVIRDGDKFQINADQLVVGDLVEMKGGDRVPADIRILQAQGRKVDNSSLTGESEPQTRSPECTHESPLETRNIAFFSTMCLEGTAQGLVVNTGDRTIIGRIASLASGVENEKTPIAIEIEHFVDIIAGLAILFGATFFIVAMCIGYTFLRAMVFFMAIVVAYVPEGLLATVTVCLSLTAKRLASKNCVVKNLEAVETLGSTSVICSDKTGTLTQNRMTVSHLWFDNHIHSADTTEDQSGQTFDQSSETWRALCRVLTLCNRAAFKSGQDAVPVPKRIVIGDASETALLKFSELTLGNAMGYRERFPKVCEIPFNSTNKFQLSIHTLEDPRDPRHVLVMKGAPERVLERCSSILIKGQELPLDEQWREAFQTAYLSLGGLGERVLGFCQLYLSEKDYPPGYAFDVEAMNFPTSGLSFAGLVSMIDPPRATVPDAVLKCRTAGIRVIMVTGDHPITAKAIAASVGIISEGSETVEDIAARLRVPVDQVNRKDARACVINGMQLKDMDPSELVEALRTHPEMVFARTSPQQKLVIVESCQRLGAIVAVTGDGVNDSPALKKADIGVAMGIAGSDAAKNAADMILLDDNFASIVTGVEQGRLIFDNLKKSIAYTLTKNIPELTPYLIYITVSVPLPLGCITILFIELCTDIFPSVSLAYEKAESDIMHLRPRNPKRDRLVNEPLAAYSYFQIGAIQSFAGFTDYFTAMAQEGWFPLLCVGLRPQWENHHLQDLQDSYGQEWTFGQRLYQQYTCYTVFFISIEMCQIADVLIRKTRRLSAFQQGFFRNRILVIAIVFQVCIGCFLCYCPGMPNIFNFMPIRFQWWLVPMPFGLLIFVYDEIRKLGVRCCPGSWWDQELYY
T1 sequence (P18434 whole entry partner): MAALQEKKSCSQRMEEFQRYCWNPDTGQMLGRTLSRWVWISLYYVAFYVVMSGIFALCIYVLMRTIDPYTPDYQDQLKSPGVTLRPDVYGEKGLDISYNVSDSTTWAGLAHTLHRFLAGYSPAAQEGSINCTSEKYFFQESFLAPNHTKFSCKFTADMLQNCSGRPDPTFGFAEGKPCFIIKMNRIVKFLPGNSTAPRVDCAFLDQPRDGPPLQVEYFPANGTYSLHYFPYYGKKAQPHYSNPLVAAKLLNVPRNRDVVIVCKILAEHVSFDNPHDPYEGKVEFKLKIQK
Summary of the method: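 Hog gastric vesicles in 60 mmol/l Tris-HCl pH 7.4 with 0.5% DMSO were treated with compounds at room temperature; reaction was started with 10 μl of 10 mmol/l ATP stock. Released Pi was read at 570 nm, K+-specific activity taken as the ±K+ difference. IC50 from 4-parameter logistic fit.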

Structure (SMILES)	IC50 [2]	inhibition in vivo at 3 mg/kg [1]
CNCc1cn(S(=O)(=O)c2cccnc2)c2cc(Nc3ccc(OC(F)(F)F)cc3C)ccc12 [Example 53, N-(2-methyl-4-(trifluoromethoxy)phenyl)-3-((methylamino)methyl)-1-(pyridin-3-ylsulfonyl)-1H-indol-6-amine hydrochloride]	490 nM	45%
CNCc1cn(S(=O)(=O)c2cncc(F)c2)c2cc(Nc3ccc(F)cc3Cl)ccc12 [Example 213, N-(2-chloro-4-fluorophenyl)-1-((5-fluoropyridin-3-yl)sulfonyl)-3-((methylamino)methyl)-1H-indol-6-amine hydrochloride]	160 nM	50%
CNCc1cn(S(=O)(=O)c2cncc(F)c2)c2cc(Nc3ccc(OC)nc3Cl)ccc12 [Example 217, N-(2-chloro-6-methoxypyridin-3-yl)-1-((5-fluoropyridin-311)sulfonyl)-3-((methylamino)methyl)-1H-indol-6-amine hydrochloride]	540 nM	44%
CNCc1cn(S(=O)(=O)c2cncc(F)c2)c2cc(Nc3ccc(F)cc3C)ccc12 [Example 212, N-(4-fluoro-2-methylphenyl)-1-((5-fluoropyridin-3-yl)sulfonyl)-3-((methylamino)methyl)-1H-indol-6-amine hydrochloride]	180 nM	56%
CNCc1cn(S(=O)(=O)c2cccnc2)c2cc(Cc3ccc(C)cc3)ccc12 [Example 270, N-methyl-1-(6-(4-methylbenzyl)-1-(pyridin-3-ylsulfonyl)-1H-indol-3-yl)methanamine hydrochloride]	790 nM	38%
CNCc1cn(S(=O)(=O)c2cccnc2)c2cc(Nc3ccc(C)c(F)c3F)ccc12 [Example 65, N-(2,3-difluoro-4-methylphenyl)-3-((methylamino)methyl)-1-(pyridin-3-ylsulfonyl)-1H-indol-6-amine hydrochloride]	310 nM	42%
CNCc1cn(S(=O)(=O)c2cccc(C(F)(F)F)c2)c2cc(N(C)c3ccc(OC)nc3Cl)ccc12 [Example 315, N-(2-chloro-6-methoxypyridin-3-yl)-N-methyl-3-((methylamino)methyl)-1-((3-(trifluoromethyl)phenyl)sulfonyl)-1H-indol-6-amine hydrochloride]	2950 nM	45%
CNCc1cn(S(=O)(=O)c2cccnc2)c2cc(Cc3ccc(C)cc3F)ccc12 [Example 272, 1-(6-(2-fluoro-4-methylbenzyl)-1-(pyridin-3-ylsulfonyl)-1H-indol-3-yl)-N-methylmethanamine hydrochloride]	500 nM	41%
CNCc1cn(S(=O)(=O)c2cccnc2)c2cc(Cc3ccc(F)cc3Cl)ccc12 [Example 273, 1-(6-(2-chloro-4-fluorobenzyl)-1-(pyridin-3-ylsulfonyl)-1H-indol-3-yl)-N-methylmethanamine hydrochloride]	370 nM	32%
CNCc1cn(S(=O)(=O)c2cccnc2)c2cc(Cc3ccc(C)cc3Cl)ccc12 [Example 267, 1-(6-(2-chloro-4-methylbenzyl)-1-(pyridin-3-ylsulfonyl)-1H-indol-3-yl)-N-methylmethanamine hydrochloride]	230 nM	44%
CNCc1cn(S(=O)(=O)c2cncc(F)c2)c2cc(Nc3ccc(OC(F)(F)F)cc3OC)ccc12 [Example 216, 1-((5-fluoropyridin-3-yl)sulfonyl)-N-(2-methoxy-4-(trifluoromethoxy)phenyl)-3-((methylamino)methyl)-1H-indol-6-amine hydrochloride]	1500 nM	69%
CNCc1cn(S(=O)(=O)c2cccnc2)c2cc(Cc3ccc(C)c(F)c3F)ccc12 [Example 286, 1-(6-(2,3-difluoro-4-methylbenzyl)-1-(pyridin-3-ylsulfonyl)-1H-indol-3-yl)-N-methylmethanamine hydrochloride]	390 nM	35%
CNCc1cn(S(=O)(=O)c2cccc(F)c2)c2cc(Nc3ccc(Cl)cc3Cl)cnc12 [Example 342, N-(2,4-dichlorophenyl)-1-((3-fluorophenyl)sulfonyl)-3-((methylamino)methyl)-1H-pyrrolo[3,2-b]pyridin-6-amine hydrochloride]	400 nM	41%

Second part, led by results:

IC50 [2]	Structure (SMILES)	inhibition in vivo at 3 mg/kg [1]
180 nM	CNCc1cn(S(=O)(=O)c2cccc(F)c2)c2cc(Nc3ccc(OC)cc3F)ccc12 [Example 139, N-(2-fluoro-4-methoxyphenyl)-1-((3-fluorophenyl)sulfonyl)-3-((methylamino)methyl)-1H-indol-6-amine hydrochloride]	40%
420 nM	CNCc1cn(S(=O)(=O)c2cccnc2)c2cc(Nc3ccc(OC(F)(F)F)cc3Cl)ccc12 [Example 55, N-(2-chloro-4-(trifluoromethoxy)phenyl)-3-((methylamino)methyl)-1-(pyridin-3-ylsulfonyl)-1H-indol-6-amine hydrochloride]	55%
740 nM	CNCc1cn(S(=O)(=O)c2cccnc2)c2cc(Nc3ccc(Cl)cc3F)ccc12 [Example 28, N-(4-chloro-2-fluorophenyl)-3-((methylamino)methyl)-1-(pyridin-3-ylsulfonyl)-1H-indol-6-amine hydrochloride]	44%
350 nM	CNCc1cn(S(=O)(=O)c2cccnc2)c2cc(Nc3ccc(OC)nc3Cl)ccc12 [Example 123, N-(2-chloro-6-methoxypyridin-3-yl)-3-((methylamino)methyl)-1-(pyridin-3-ylsulfonyl)-1H-indol-6-amine hydrochloride]	40%
180 nM	CNCc1cn(S(=O)(=O)c2cccnc2)c2cc(Nc3ccc(C)cc3F)ccc12 [Example 1, N-(2-fluoro-4-methylphenyl)-3-((methylamino)methyl)-1-(pyridin-3-ylsulfonyl)-1H-indol-6-amine hydrochloride]	58%
120 nM	CNCc1cn(S(=O)(=O)c2cccc(F)c2)c2cc(Nc3ccc(F)cc3C)ccc12 [Example 138, N-(4-fluoro-2-methylphenyl)-1-((3-fluorophenyl)sulfonyl)-3-((methylamino)methyl)-1H-indol-6-amine hydrochloride]	55%
290 nM	CNCc1cn(S(=O)(=O)c2cccc(Cl)c2)c2cc(Nc3ccc(OC)nc3Cl)ccc12 [Example 160, N-(2-chloro-6-methoxypyridin-3-yl)-1-((3-chlorophenyl)sulfonyl)-3-((methylamino)methyl)-1H-indol-6-amine hydrochloride]	57%
210 nM	CNCc1cn(S(=O)(=O)c2cccnc2)c2cc(Nc3ccc(C)cc3Cl)ccc12 [Example 22, N-(2-chloro-4-methylphenyl)-3-((methylamino)methyl)-1-(pyridin-3-ylsulfonyl)-1H-indol-6-amine]	48%
1690 nM	CNCc1cn(S(=O)(=O)c2cncc(F)c2)c2cc(Nc3ccc(OC)cc3OC(F)(F)F)ccc12 [Example 214, 1-((5-fluoropyridin-3-yl)sulfonyl)-N-(4-methoxy-2-(trifluoromethoxy)phenyl)-3-((methylamino)methyl)-1H-indol-6-amine hydrochloride]	75%
260 nM	CNCc1cn(S(=O)(=O)c2cccc(Cl)c2)c2cc(Nc3ccc(OC)cc3F)ccc12 [Example 153, 1-((3-chlorophenyl)sulfonyl)-N-(2-fluoro-4-methoxyphenyl)-3-((methylamino)methyl)-1H-indol-6-amine hydrochloride]	42%
